# Results published in US20220168301A1, “METHODS FOR TREATING SYMPTOMATIC ORTHOSTATIC HYPOTENSION” (Cerecor Inc, priority 2019, published 2022).
# Like-named read-outs stand apart in the source and are kept apart here.
# Assays:
# [1] = test system: patients with moderate Parkinson's disease; details: single oral dose 7 mg; cited from earlier work
# [2] = Plasma pharmacokinetics of CERC-301, single and 7-day repeated dose, healthy subjects; type: in vivo, human; details: for half-life: read-out: Average t1/2; for Tmax: read-out: Median tmax
# Method: (§1) The study was a randomized, double-blind, placebo-controlled parallel-group, three-part, repeated dose in-patient study investigating the safety, tolerability, PK, and PD of CERC-301 in healthy subjects.
# (§2) Subjects received 8, 12, 16 or 20 mg CERC-301 or matching placebo once-daily for 7 days.
# PK endpoints included the following determined from plasma CERC-301 concentration data: • Day 1 parameters include Cmax, Tmax, AUC0-24, AUC0-inf, AUC%extrap, CL/F, Vz/F, and t1/2 • Day 7 parameters include Cmax, Tmax, AUC0-24, AUC0-inf, AUC%extrap, CL/F, Vss/F, t1/2, and Cavg • Trough concentrations will be reported for Days 2-8 • Accumulation after 7-days of dosing will be investigated by calculating: • Observed Accumulation Ratio: AUCo-24 (Day 7)/AUC0-24 (Day 1) • Steady State Accumulation Ratio: AUC0-24 (Day 7)/AUC0-int (Day 1) • Cmax ratio: Cmax (Day 7)/Cmax (Day 1)
# Pharmacokinetic parameters were determined for CERC-301 using noncompartmental methods based on plasma CERC-301 concentration data following the first and last dose of CERC-301. […] Mean plasma CERC-301 concentrations on Day 7 were approximately 20% to 40% higher from 2 to 24 hours postdose in the intermediate age and elderly subgroups, respectively, compared to the young age subgroup, and were approximately 20% higher from 2 to 24 hours postdose in female subjects compared to male subjects.
# healthy subjects = test: 24-hour ambulatory blood pressure monitoring (ABPM), 7-day once-daily dosing study in healthy subjects; type: in vivo, human
# Method: The effects of CERC-301 were assessed in a randomized, double-blind, placebo-controlled, parallel-group, three-part safety, pharmacokinetic, and pharmacodynamic study in healthy human subjects.
# One of the primary objective of the study was to investigative the dose-response relationship between CERC-301 and pharmacodynamic (PD) effects on blood pressure [BP] in healthy subjects. Secondary objectives included the investigation of the safety and tolerability of CERC-301 over 7 days of once-daily administration and the investigation of a single dose and 7-day repeated dose pharmacokinetic (PK) profiles of CERC-301, and to explore sub-group (age or gender) effects on other safety parameters, such as adverse events (AEs).
# as §1
# Part 1: After the screening period, healthy, young male and female subjects were randomly assigned to dose groups as shown in Table 1. Randomized subjects participated in a time-matched baseline BP monitoring day (Day −1), once-daily dosing with study drug during which safety, PK, and PD assessments were performed on Days 1-7, discharge on Day 8, a follow-up period for PK and safety on Days 9-11, and end-of-study visit on Day 16. Each parallel dose group was balanced for gender (approximately equal number of males and females in each group).
# Part 2: After the screening period, healthy, young and intermediate age male and female subjects were randomly assigned to dose groups as shown in Table 2. Randomized subjects participated in a time-matched baseline BP monitoring day (Day −1), once-daily dosing with study drug during which safety, PK, and PD assessments were performed on Days 1-7, discharge on Day 8, a follow-up period for PK and safety on Days 9-11, and end-of-study visit on Day 16. Each parallel dose group was balanced for gender (approximately equal number of males and females in each group).
# Part 3: After the screening period, healthy, young and elderly male and female subjects were randomly assigned to dose groups as shown in Table 3.
# Randomized subjects participated in a time-matched baseline BP monitoring day (Day −1), once-daily dosing with study drug during which safety, PK, and PD assessments were performed on Days 1-7, discharge on Day 8, a follow-up period for PK and safety on Days 9-11, and end-of-study visit on Day 16. Each parallel dose group was balanced for gender (approximately equal number of males and females in each group).
# as §2
# PD endpoints included the following […]: • 24-hour Ambulatory Blood Pressure Monitoring (ABPM) • Observed values and time matched change from baseline (pre-dose) of 24-hour ABPM • Mean 24 hours, Sleep and Awake systolic and diastolic BPs. • Mean Arterial Pressure (MAP), pulse pressure, and heart rate. • Observed values and change from baseline of sub-scale scores and Total Mood Disturbance (TMD) scores from Profiles of Mood States (POMS)
# [3] = rats, cited from earlier work
# [4] = monkeys, cited from earlier work
# [5] = 20 mg, 24 hours postdose, after 7 days of dosing
smiles,measurement,setting,value
Cc1ccc(COC(=O)N2CC[C@H](CNc3ncccn3)[C@H](F)C2)cc1 [CERC-301],Plasma concentration relative to target,[1],> 400 nM
same,Systolic and diastolic blood pressure relative to placebo,[1],increases in systolic and diastolic blood pressure relative to placebo
same,Tolerability,[1],generally well tolerated
same,Plasma CERC-301 concentrations increase with dose,"[2]; 8 to 20 mg, steady-state daily dosing",approximately dose proportional
same,"Apparent oral clearance, lower in female subjects compared to male subjects",[2]; Day 7,approximately 15%
same,"Apparent oral clearance, lower in intermediate age group compared to young age group",[2]; Day 7,approximately 18%
same,"Average Cmax, higher in intermediate age and elderly subgroups compared to young age group",[2]; Day 7,approximately 30%
same,"Average t1/2, higher in elderly age group compared to young age group",[2]; Day 7,~38%
same,"Average t1/2, higher in female subjects compared to male subjects",[2]; Day 7,approximately 16%
same,"Average t1/2, higher in intermediate age group compared to young age group",[2]; Day 7,approximately 27%
same,"Mean plasma CERC-301 concentrations, higher in elderly subgroup compared to young age subgroup","[2]; Day 7, 2 to 24 hours postdose",~40%
same,"Mean plasma CERC-301 concentrations, higher in female subjects compared to male subjects","[2]; Day 7, 2 to 24 hours postdose",approximately 20%
same,"Mean plasma CERC-301 concentrations, higher in intermediate age subgroup compared to young age subgroup","[2]; Day 7, 2 to 24 hours postdose",approximately 20%
same,Cmax and AUC increase with dose,"[2]; Days 1 and 7, 8 to 20 mg",approximately dose-proportional
same,half-life,"[2]; both sexes, human, plasma, oral, male and female subjects, Day 7",21 to 24 h
same,Tmax,"[2]; both sexes, human, plasma, oral, male and female subjects",1.75 to 2 h
same,Average Day 7 to Day 1 Cmax ratio,[2]; elderly age group,1.53
same,Mean observed accumulation index,[2]; elderly age group,2.12
same,Mean steady state accumulation index,[2]; elderly age group,1.30
same,Average apparent volume of distribution,"[2]; elderly age subgroup, Day 7",111 L
same,Average Day 7 to Day 1 Cmax ratio,[2]; females,1.38
same,Mean observed accumulation index,[2]; females,1.88
same,Mean steady state accumulation index,[2]; females,1.10
same,Average apparent volume of distribution,"[2]; females, Day 7",105 L
same,Oral bioavailability,"[2]; human, in vivo, po",orally bioavailable
same,Tmax,"[2]; human, plasma, oral, Day 1, 8 to 20 mg",2 to 3 h
same,Tmax,"[2]; human, plasma, oral, Day 7, 8 to 20 mg",1.5 to 3 h
same,Tmax,"[2]; human, plasma, oral, young subjects, Days 1 and 7, 8 to 20 mg",1.5 to 3 h
same,half-life,"[2]; human, plasma, oral, young, intermediate age and elderly subgroups, Day 7",20 to 28 h
same,Tmax,"[2]; human, plasma, oral, young, intermediate age and elderly subgroups",1.5 to 2.5 h
same,Vd,"[2]; human, plasma, oral, young subjects, Day 7, 8 to 20 mg, read-out: Average apparent volume of distribution",83 to 115 L
same,half-life,"[2]; human, plasma, oral, young subjects, Day 7, 8 to 20 mg",17 to 21 h
same,Average Day 7 to Day 1 Cmax ratio,[2]; intermediate age group,1.41
same,Mean observed accumulation index,[2]; intermediate age group,1.92
same,Mean steady state accumulation index,[2]; intermediate age group,1.13
same,Average apparent volume of distribution,"[2]; intermediate age subgroup, Day 7",121 L
same,Average Day 7 to Day 1 Cmax ratio,[2]; males,1.36
same,Mean observed accumulation index,[2]; males,1.72
same,Mean steady state accumulation index,[2]; males,1.15
same,Average apparent volume of distribution,"[2]; males, Day 7",108 L
same,Steady-state predose plasma CERC-301 concentrations achieved,[2]; repeated daily doses,by study day 5 or 6
same,Average Day 7 to Day 1 Cmax ratio,[2]; young age group,1.15
same,Mean observed accumulation index,[2]; young age group,1.65
same,Mean steady state accumulation index,[2]; young age group,1.01
same,Average apparent volume of distribution,"[2]; young age subgroup, Day 7",115 L
same,Steady-state accumulation index (AUC0-24 Day 7/AUC0-inf Day 1),"[2]; young subjects, on average",1.1
same,Average nighttime SBP increase,"healthy subjects; 16 mg, Day 7",2 mm Hg
same,Mean hourly average DBP change from baseline,healthy subjects; [5],approximately 10 mm Hg
same,Mean hourly average SBP change from baseline,healthy subjects; [5],approximately 14 mm Hg
same,Maximum average hourly daytime ambulatory DBP,"healthy subjects; 20 mg, Day 1",approximately 15 mm Hg
same,Maximum average hourly daytime ambulatory SBP,"healthy subjects; 20 mg, Day 1",approximately 16 mm Hg
same,Maximum average hourly daytime ambulatory DBP,"healthy subjects; 20 mg, Day 4",approximately 15 mm Hg
same,Maximum average hourly daytime ambulatory SBP,"healthy subjects; 20 mg, Day 4",~21 mm Hg
same,Maximum average hourly daytime ambulatory DBP,"healthy subjects; 20 mg, Day 7",~19 mm Hg
same,Maximum average hourly daytime ambulatory SBP,"healthy subjects; 20 mg, Day 7",~24 mm Hg
same,Excretion,[3],excreted exclusively as metabolites via both the biliary and renal routes
same,Metabolism,[3],highly metabolized via multiple cytochrome P450 (CYP450) enzymes
same,Absorption,[3]; oral administration,rapidly absorbed after oral administration
same,Excretion,[4],excreted exclusively as metabolites via both the biliary and renal routes
same,Metabolism,[4],highly metabolized via multiple cytochrome P450 (CYP450) enzymes
same,Absorption,[4]; oral administration,rapidly absorbed after oral administration
